Patent US20130096100A1, “DI(ARYLAMINO)ARYL COMPOUND” (ASTELLAS PHARMA INC., priority 2007, published 2013)

Legend:
NCI-H2228 cells (tumor) = test: Antitumor test (in vivo) on NCI-H2228 cells (Test Example 8); conditions: oral 3 mg/kg once a day for 14 days, NOD/SCID mice; tumor volume
Method: 3×10^6 cells of NCI-H2228 cells suspended in PBS were inoculated subcutaneously by injection to the back of 5 weeks old male NOD/SCID mice (Charles River Japan, Inc.). After 3 weeks of the inoculation, the administration of test compounds was initiated. The test was conducted in the solvent group and test compound groups, 6 animals per group. The test compounds were each dissolved in a solvent composed of 10% 1-methyl-2-pyrrolidinone (SIGMA-ALDRICH Inc.)/90% polyethylene glycol 300 (Fluka Inc.) and administered orally at a dose of 3 mg/kg. Administrations were performed once a day for 14 days, and body weight and tumor size were measured every other day. Tumor volume was calculated using the following formula.
[Tumor volume (mm^3)]=[Tumor major axis (mm)]×[tumor minor axis (mm)]^2×0.5

[1] = biological target: T1, EML4-ALK fusion protein v1 (Homo sapiens, UniProt Q9UM73, D1529E/I1461V/K1491R); test: Inhibitory activity against the kinase activity of EML4-ALK fusion protein v1 (Test Example 1); type: biochemical; conditions: ATP 100 μM, reaction 1 hour, HTRF KinEASE-TK
T1 construct: FLAG (N); made in house
Method: EML4-ALK fusion protein v1 (purified from BA/F3 cells expressing EML4-ALK fusion protein v1) was investigated for its phosphorylation activity toward a peptide substrate by using a kinase activity detection kit (HTRF KinEASE-TK; Cisbio Inc.). […] The ATP concentration used was 100 μM. Another reaction solution was prepared to contain the enzyme protein but no test compound (in which the solvent DMSO alone was added at 0.4% in place of the test compound), followed by reaction in the same manner with or without ATP addition. […] The concentration causing 50% inhibition (IC50) was calculated for each test compound by the logistic regression method.
N-terminally FLAG-tagged EML4-ALK fusion protein v1 was inserted into a vector pMX-iresCD8 capable of co-expression of insert cDNA and cell surface antigen CD8 (J. Biol. Chem., 2001, vol. 276, p. 39012-39020) to create a vector FLAG-EML4-ALKv1/pMX-iresCD8 expressing both FLAG-EML4-ALKv1 and CD8. FLAG-EML4-ALKv1/pMX-iresCD8 was used to create a recombinant retrovirus in the same manner as described above and infected into mouse lymphoid cell line BA/F3 cells. Using a magnetic bead reagent for cell separation and a purification column (anti-CD8 monoclonal antibody immobilized on magnetic beads and a MiniMACS purification column; both are products of Miltenyi Biotec Inc.), cell surface CD8-expressing cells were purified conveniently. […] After washing 3 times with PBS, the cells were lysed in a lysis solution (50 mM Tris.HCl (pH 7.4), 150 mM NaCl, 1% Triton X100, 5 mM EDTA, 5 mM EGTA, 1 mM NaVO4, 1 mM DTT and protease inhibitor cocktail complete). The EML4-ALK fusion protein v1 present in the supernatant obtained after centrifugation was purified using ANTI-FLAG M2 Affinity Gel (SIGMA-ALDRICH Inc.) according to the method described in the product information document.
The EML4-ALK fusion protein v1 purified as above was investigated for its phosphorylation activity toward a peptide substrate using a kinase activity detection kit (HTRF KinEASE-TK; Cisbio Inc.). Using TK substrate 1, which was included in the kit, as the substrate, and after adding no ATP or 100 μM ATP, the mixtures were reacted at room temperature for 1 hour, and the count of HTRF was detected as recommended by the Kits manufacturer.

88 types of kinases = test: Kinase inhibition profiling, 88 types of kinases (Test Example 6); type: biochemical; conditions: concentration of 100 nM
MER = biological target: T2, MER (Homo sapiens, UniProt Q12866); test: Kinase inhibition profiling, MER (Test Example 6); type: biochemical; conditions: 100 nM; read-out: inhibitory activity against MER
T2 construct: purchased Carna Biosciences Inc., Japan (contract measurement)
T2 sequence (Q12866 21-999): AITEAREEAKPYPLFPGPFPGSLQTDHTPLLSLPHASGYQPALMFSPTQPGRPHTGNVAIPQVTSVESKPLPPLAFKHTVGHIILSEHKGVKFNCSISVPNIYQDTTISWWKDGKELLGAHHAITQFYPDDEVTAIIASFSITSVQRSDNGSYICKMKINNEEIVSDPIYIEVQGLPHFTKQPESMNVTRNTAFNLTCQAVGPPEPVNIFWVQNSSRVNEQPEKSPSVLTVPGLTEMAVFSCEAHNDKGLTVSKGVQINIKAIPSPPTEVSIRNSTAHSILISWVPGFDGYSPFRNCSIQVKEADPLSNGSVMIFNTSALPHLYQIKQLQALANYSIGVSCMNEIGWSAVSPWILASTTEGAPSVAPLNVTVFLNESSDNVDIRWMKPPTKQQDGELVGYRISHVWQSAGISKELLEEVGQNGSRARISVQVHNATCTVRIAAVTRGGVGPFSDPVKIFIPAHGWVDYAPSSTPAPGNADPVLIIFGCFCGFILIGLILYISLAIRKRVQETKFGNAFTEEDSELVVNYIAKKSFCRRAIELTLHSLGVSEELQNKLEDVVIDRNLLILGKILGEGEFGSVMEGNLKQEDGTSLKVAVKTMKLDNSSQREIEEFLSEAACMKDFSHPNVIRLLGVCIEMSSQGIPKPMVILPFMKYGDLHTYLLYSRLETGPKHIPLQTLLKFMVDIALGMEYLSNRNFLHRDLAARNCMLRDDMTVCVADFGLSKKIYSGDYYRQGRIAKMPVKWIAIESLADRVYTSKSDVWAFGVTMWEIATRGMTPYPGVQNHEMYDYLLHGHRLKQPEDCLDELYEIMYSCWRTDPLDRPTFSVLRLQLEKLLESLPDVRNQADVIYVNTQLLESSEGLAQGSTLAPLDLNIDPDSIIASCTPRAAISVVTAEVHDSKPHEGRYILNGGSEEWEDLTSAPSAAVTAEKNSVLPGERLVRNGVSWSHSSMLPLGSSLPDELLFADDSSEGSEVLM

PHKG1 = biological target: T3, PHKG1 (Homo sapiens, UniProt Q16816); test: Kinase inhibition profiling, PHKG1 (Test Example 6); type: biochemical; conditions: 100 nM; read-out: inhibitory activity against PHKG1
T3 construct: purchased Carna Biosciences Inc., Japan (contract measurement)

MNK1 = biological target: T4, MNK1 (Homo sapiens, UniProt Q9BUB5); test: Kinase inhibition profiling, MNK1 (Test Example 6); type: biochemical; conditions: 100 nM; read-out: inhibitory activity against MNK1
T4 construct: purchased Carna Biosciences Inc., Japan (contract measurement)
T4 sequence (Q9BUB5 whole entry): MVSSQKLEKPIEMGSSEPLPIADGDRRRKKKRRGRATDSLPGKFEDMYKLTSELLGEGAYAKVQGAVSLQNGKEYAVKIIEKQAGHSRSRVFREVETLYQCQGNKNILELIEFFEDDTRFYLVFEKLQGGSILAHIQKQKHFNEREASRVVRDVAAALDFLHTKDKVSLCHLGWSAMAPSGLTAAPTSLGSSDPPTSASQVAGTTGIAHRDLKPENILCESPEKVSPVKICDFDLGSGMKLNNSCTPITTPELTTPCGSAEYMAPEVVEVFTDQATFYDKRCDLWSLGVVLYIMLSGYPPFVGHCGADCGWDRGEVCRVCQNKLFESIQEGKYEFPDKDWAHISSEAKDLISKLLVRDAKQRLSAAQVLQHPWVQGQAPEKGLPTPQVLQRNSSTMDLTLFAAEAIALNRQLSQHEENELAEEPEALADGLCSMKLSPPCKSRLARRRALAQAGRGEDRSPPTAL

T1 sequence (Q9UM73 with tags, fused parts or gaps I1461V/K1491R/D1529E): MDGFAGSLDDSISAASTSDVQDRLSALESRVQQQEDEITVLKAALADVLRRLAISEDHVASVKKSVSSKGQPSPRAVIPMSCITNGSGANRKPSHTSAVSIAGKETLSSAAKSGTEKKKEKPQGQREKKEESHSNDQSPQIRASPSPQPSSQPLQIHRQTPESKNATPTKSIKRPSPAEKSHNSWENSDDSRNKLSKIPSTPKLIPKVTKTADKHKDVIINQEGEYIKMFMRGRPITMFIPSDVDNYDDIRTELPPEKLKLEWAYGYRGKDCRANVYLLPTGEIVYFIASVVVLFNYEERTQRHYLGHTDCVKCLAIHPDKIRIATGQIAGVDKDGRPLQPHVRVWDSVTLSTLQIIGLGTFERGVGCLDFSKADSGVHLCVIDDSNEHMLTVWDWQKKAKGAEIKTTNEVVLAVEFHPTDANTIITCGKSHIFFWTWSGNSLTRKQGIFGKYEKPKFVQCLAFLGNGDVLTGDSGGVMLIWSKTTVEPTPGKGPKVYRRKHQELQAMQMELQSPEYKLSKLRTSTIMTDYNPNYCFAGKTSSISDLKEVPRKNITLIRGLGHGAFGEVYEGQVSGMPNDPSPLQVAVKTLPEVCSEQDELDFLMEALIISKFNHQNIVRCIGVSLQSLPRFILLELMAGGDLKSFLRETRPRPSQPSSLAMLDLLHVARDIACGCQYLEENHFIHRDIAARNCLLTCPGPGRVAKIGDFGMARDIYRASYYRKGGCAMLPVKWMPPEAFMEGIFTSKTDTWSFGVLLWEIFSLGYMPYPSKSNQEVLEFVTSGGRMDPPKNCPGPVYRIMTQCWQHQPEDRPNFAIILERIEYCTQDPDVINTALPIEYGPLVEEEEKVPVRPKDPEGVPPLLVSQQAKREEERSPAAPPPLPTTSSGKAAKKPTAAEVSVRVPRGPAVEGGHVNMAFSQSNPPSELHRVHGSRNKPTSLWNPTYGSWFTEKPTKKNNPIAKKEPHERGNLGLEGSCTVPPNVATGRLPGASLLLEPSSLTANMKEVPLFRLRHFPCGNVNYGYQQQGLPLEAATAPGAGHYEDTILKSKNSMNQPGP
T3 sequence (Q16816 whole entry): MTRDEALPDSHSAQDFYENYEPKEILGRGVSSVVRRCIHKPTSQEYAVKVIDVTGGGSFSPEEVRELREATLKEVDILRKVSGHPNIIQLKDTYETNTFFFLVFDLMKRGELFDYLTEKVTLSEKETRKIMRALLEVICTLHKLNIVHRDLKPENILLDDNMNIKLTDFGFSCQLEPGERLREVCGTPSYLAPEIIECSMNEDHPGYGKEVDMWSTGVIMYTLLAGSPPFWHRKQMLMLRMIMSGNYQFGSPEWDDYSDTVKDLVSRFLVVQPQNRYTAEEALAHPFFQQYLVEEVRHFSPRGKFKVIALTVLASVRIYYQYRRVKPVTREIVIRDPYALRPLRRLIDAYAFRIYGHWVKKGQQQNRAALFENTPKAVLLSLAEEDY

Compound | inhibition of the growth of NCI-H2228 cells (tumor) (NCI-H2228 cells (tumor)) | IC50 [1] | number of types of kinases (of 88) with 50% or more inhibitory activity (88 types of kinases) | inhibition at 0.1 µM (MER) | inhibition at 0.1 µM (PHKG1) | inhibition at 0.1 µM (MNK1)
CCNS(=O)(=O)c1ccccc1Nc1ncnc(Nc2ccc(N3CCC(N4CCN(C)CC4)CC3)cc2OC)n1 [Example 123] | 108% | 33 nM |  |  |  | 
COc1cc(N2CCC(N3CCN(C)CC3)CC2)ccc1Nc1ncnc(Nc2ccccc2S(=O)(=O)C(C)C)n1 [Example 23] | 116% | 17 nM | 4 types of kinases | < 20% | < 20% | 60%
